# Reference: the supplement of paper PMC10307832
# How the values were obtained:
# Experiment in all cases: relative viability (nuclei count vs DMSO), 5 days (fraction); higher = more cells survive
# [1] = compound: CS(=O)(=O)CCNCc1ccc(-c2ccc3ncnc(Nc4ccc(OCc5cccc(F)c5)c(Cl)c4)c3c2)o1 [Lapatinib] + N=C(N)NC(=N)NCCc1ccccc1 [Phenformin] (partner 250 µM)
# Procedure, shortened: (§1)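 Lung cancer cell lines, seeded in 1536-well plates, were treated the following day by pin tool with a single drug or with five library-drug doses (not always all listed) in √10 steps on top of a fixed anchor-drug dose. Cells were fixed and nuclei stained in one step after 5 days, and nuclei were counted. Relative viability is the nuclei count for treated wells divided by that for vehicle wells, reported as medians of duplicate plates.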
# [2] = compound: CC1=NC=CC(=C1)C2=CC=C(C=C2)CC(=O)NC3=CC=C(C=C3)C4=CN=CC=C4 [Wnt-C59] + NC(=O)Nc1cc(-c2cccc(F)c2)sc1C(=O)N[C@H]1CCCNC1 [AZD7762] (partner 0.2 µM)
# Procedure, shortened: as §1
# [3] = compound: CC1=NC=CC(=C1)C2=CC=C(C=C2)CC(=O)NC3=CC=C(C=C3)C4=CN=CC=C4 [Wnt-C59] + CCNC(=O)c1noc(-c2cc(C(C)C)c(O)cc2O)c1-c1ccc(CN2CCOCC2)cc1 [Luminespib] (partner 0.01 µM)
# Procedure, shortened: as §1
# [4] = compound: CS(=O)(=O)CCNCc1ccc(-c2ccc3ncnc(Nc4ccc(OCc5cccc(F)c5)c(Cl)c4)c3c2)o1 [Lapatinib] + COc1cc2c(Oc3ccc(NC(=O)C4(C(=O)Nc5ccc(F)cc5)CC4)cc3F)ccnc2cc1OCCCN1CCOCC1 [Foretinib] (partner 0.25 µM)
# Procedure, shortened: as §1
Cell Line,relative viability ([1]; first compound 0.2 µM),relative viability ([1]; first compound 0.6325 µM),relative viability ([1]; first compound 2 µM),relative viability ([2]; first compound 0.001 µM),relative viability ([2]; first compound 0.01 µM),relative viability ([2]; first compound 0.03162 µM),relative viability ([2]; first compound 0.1 µM),relative viability ([3]; first compound 0.001 µM),relative viability ([3]; first compound 0.01 µM),relative viability ([3]; first compound 0.03162 µM),relative viability ([3]; first compound 0.1 µM),relative viability ([4]; first compound 0.2 µM),relative viability ([4]; first compound 0.6325 µM),relative viability ([4]; first compound 2 µM),relative viability ([1]; first compound 0.02 µM),relative viability ([1]; first compound 0.06325 µM),relative viability ([4]; first compound 0.02 µM),relative viability ([4]; first compound 0.06325 µM)
NCI-H23,0.792,0.805,0.761,0.244,0.257,0.243,0.296,0.206,0.217,0.227,0.217,0.908,0.958,0.898,–,–,–,–
NCI-H322M,0.736,0.693,0.551,0.575,0.577,0.511,0.536,0.978,0.737,0.737,0.809,0.944,0.911,0.611,0.805,0.736,1.04,0.809
NCI-H358,0.222,0.215,0.171,0.448,0.582,0.588,0.617,0.315,0.341,0.291,0.475,0.422,0.317,0.17,0.25,0.107,0.613,0.33
NCI-H441,0.946,0.901,0.873,1.19,1.35,1.48,0.997,0.428,0.247,0.276,0.407,1.01,0.822,1.1,–,0.43,–,0.931
NCI-H460,0.52,0.504,0.446,0.554,0.605,0.568,0.673,0.0357,0.0331,0.0466,0.0312,0.998,0.966,0.69,0.487,0.48,0.923,1
NCI-H596,0.748,0.762,0.685,1.06,1.03,0.987,1.08,1.14,1.08,1.06,1.06,0.756,0.835,0.789,–,0.654,–,0.832
NCI-H647,0.517,0.631,0.219,0.554,0.389,0.502,0.472,0.145,0.175,0.149,0.166,1.22,1.01,1.2,0.352,0.416,1.06,1.16
NCI-H650,0.428,0.456,0.473,0.883,1.03,0.969,1.24,0.752,0.751,0.865,0.718,0.989,1.06,0.979,–,0.467,–,0.94
NCI-H727,0.536,0.511,0.508,0.776,0.528,0.598,0.687,0.332,–,0.857,0.526,0.673,0.708,0.691,–,–,0.617,–
NCI-H838,0.675,0.683,0.511,0.958,0.942,0.966,0.883,0.279,0.347,0.311,0.303,1.14,1.06,0.866,0.685,0.381,1.1,0.951
NCI-H1355,0.455,0.428,0.367,0.81,0.753,0.753,0.766,0.774,0.693,0.649,0.626,0.94,0.93,0.657,–,0.37,–,0.795
NCI-H1395,0.442,0.444,0.432,0.39,0.383,0.426,0.389,0.702,0.589,0.762,0.773,1.01,0.929,0.917,0.45,0.431,1.03,1.04
NCI-H1437,0.258,0.303,0.253,1.14,1.16,1.18,1.08,1.21,1.07,1.17,1.05,1.32,1.2,1.12,0.289,0.278,1.23,1.33
NCI-H1651,0.34,0.308,0.374,0.502,0.394,0.551,0.459,0.864,0.862,0.97,0.835,0.764,0.695,0.611,0.35,0.25,0.716,0.776
NCI-H1666,0.592,0.611,0.461,0.95,0.819,0.82,0.857,1.05,1.04,1.04,1.03,0.873,0.652,0.558,0.555,0.545,0.815,0.868
NCI-H1734,0.374,0.451,0.414,0.589,0.517,0.641,0.543,0.233,0.241,0.196,0.138,0.804,0.888,0.779,0.407,0.288,0.842,0.694
NCI-H1755,0.642,0.59,0.59,0.498,0.433,0.436,0.473,0.549,0.534,0.407,0.644,0.898,0.896,0.892,0.409,0.595,0.866,0.865

Cell Line,relative viability ([1]; first compound 0.2 µM),relative viability ([1]; first compound 0.6325 µM),relative viability ([1]; first compound 2 µM),relative viability ([2]; first compound 0.001 µM),relative viability ([2]; first compound 0.01 µM),relative viability ([2]; first compound 0.03162 µM),relative viability ([2]; first compound 0.1 µM),relative viability ([3]; first compound 0.001 µM),relative viability ([3]; first compound 0.01 µM),relative viability ([3]; first compound 0.03162 µM),relative viability ([3]; first compound 0.1 µM),relative viability ([4]; first compound 0.2 µM),relative viability ([4]; first compound 0.6325 µM),relative viability ([4]; first compound 2 µM),relative viability ([1]; first compound 0.02 µM),relative viability ([1]; first compound 0.06325 µM),relative viability ([4]; first compound 0.02 µM),relative viability ([4]; first compound 0.06325 µM)
NCI-H1793,0.265,0.329,0.225,0.467,0.408,0.536,0.532,0.176,–,0.204,0.201,0.497,0.524,0.422,–,0.313,–,0.5
NCI-H1915,0.384,0.361,0.39,0.761,0.69,0.708,0.69,0.867,0.74,0.986,0.785,1.12,1.08,1.09,–,0.375,–,1.06
NCI-H1944,0.188,0.193,0.186,0.474,0.482,0.452,0.534,0.802,0.758,0.769,0.652,0.745,0.723,0.537,0.178,0.14,0.836,0.637
NCI-H1975,0.385,0.399,0.385,0.72,0.653,0.724,0.773,0.347,0.28,0.217,0.143,1.02,0.835,0.715,0.413,0.362,0.924,0.855
NCI-H1993,0.509,0.583,0.556,0.965,0.665,1.05,0.769,0.862,–,0.948,0.365,0.75,0.71,0.762,0.597,–,0.691,–
NCI-H2085,0.735,0.61,0.458,0.901,0.865,1.06,0.957,0.457,0.502,0.419,0.494,0.899,0.862,0.535,–,0.64,–,0.737
NCI-H2087,0.485,0.552,0.406,1.43,1.37,1.28,1.2,0.146,0.183,0.187,0.216,1.17,0.994,0.962,–,0.354,–,0.942
NCI-H2126,0.529,0.536,0.406,1.01,1.02,1.02,1.05,0.83,1,0.991,0.892,1.13,1.03,0.612,–,0.393,–,–
NCI-H2170,0.455,0.359,0.198,0.762,0.688,0.992,0.836,0.583,0.722,0.758,0.655,0.784,0.655,0.25,0.351,0.408,1.05,0.961
NCI-H2342,0.574,0.51,0.489,0.525,0.498,0.495,0.457,0.692,0.658,0.806,0.809,0.946,0.975,0.712,0.511,0.557,1.09,1.01
NCI-H2347,0.498,0.641,0.337,0.726,0.738,0.779,0.698,0.565,0.339,0.498,0.877,0.854,0.994,1.02,–,0.376,–,0.694
NCI-H2405,0.405,0.372,0.357,0.759,0.75,0.759,0.8,0.762,0.809,0.7,0.842,1.05,1.02,0.92,0.321,0.278,1.04,0.911
NCI-H3122,0.392,0.385,0.33,1.03,0.949,1.05,0.973,0.0968,0.0872,0.0839,0.0884,0.96,0.872,0.928,–,0.379,0.944,0.901
PC-3 [JPC-3],0.457,0.521,0.431,0.883,1.05,0.758,0.927,0.782,0.817,0.913,0.696,1.03,1.09,0.471,0.452,0.468,1.04,0.989
PC-14,0.523,0.461,0.337,0.414,0.367,0.351,0.457,0.178,0.166,0.144,0.16,1.03,0.873,0.78,–,0.642,0.864,0.913
RERF-LC-KJ,0.469,0.35,0.369,0.965,0.934,1.19,0.912,1.2,1.38,1.23,1.18,0.924,0.85,0.759,0.406,0.39,0.887,0.794
SW 900,0.554,0.554,0.531,0.602,0.615,0.555,0.562,0.159,0.179,0.172,0.197,0.659,0.781,0.734,–,0.484,–,0.808
